In patent US9504676B2, “Molecules inhibiting a metabolic pathway involving the Syk protein tyrosine kinase and method for identifying said molecules” (CENTRE NATIONAL DE LA RECHERCHE SCIENTIFIQUE, priority 2008, dated 2016):
Values after ≈ are worked out from the molar mass of the structure shown.

Columns and labels:
[1] = molecular target: T1, murine Syk tyrosine kinase protein (GST:Syk 6-242) (Mus musculus, UniProt P48025); experiment: ADA method: displacement of the binding of scFv G4G11 with Syk (ELISA); conditions: small molecules at 10 μM, scFv G4G11 100 nM; read-out: In vit. inhib.: mean inhibition % of the binding of scFv G4G11 with Syk in the ADA method
T1 construct: made in house
From the text: The term “percentage of inhibition” of the binding of an antibody or antibody fragment with Syk protein, particularly refers to the ratio […], where A consists of the intensity of a signal proportional to the quantity of an antibody or antibody fragment bound with Syk protein in the absence of a molecule according to the invention and B the intensity of the same signal in the presence of a molecule according to the invention under the same conditions. […] This test may be performed for example according to the protocol described in example 3-2) hereinafter.
The inventors developed the ADA (Antigen Displacement Assay) method to identify small molecules capable of displacing the association with scFv G4G11 with Syk. […] To understand the mode of action of C-13, the inventors firstly identified the binding site of G4G11 using the SPOT method^16. An epitope located on the N-terminal SH2 domain of Syk, comprising amino acids 65-74 and 100% preserved in mouse, rat and human sequences, was identified.
The ADA method was then applied to each of these […] molecules to measure the ability thereof to inhibit the binding of scFv G4G11 with Syk.
(§1) • 1) Chemical products and antibodies. A chemical bank of 3000 molecules (a varied subset) was acquired from ChemBridge, Inc. (San Diego, Calif.). Stocks of solutions of small molecules were prepared at a rate of 10 mM in DMSO (dimethylsulphoxide), except for C-13 (methyl 2-{5-[(3-benzyl-4-oxo-2-thioxo-1,3-thiazolidin-5-ylidene)methyl]-2-furyl}benzoate, ChemBridge ID No. 6197026) prepared in DMF (dimethylformamide). Unless specified otherwise, all the reagents were supplied by Sigma. Dinitrophenyl (DNP) hapten was acquired from Calbiochem. Sepharose GammaBind G and all the secondary antibodies were supplied by GE Health Amersham Biosciences. The anti-Syk, anti-Lyn, anti-Btk, anti-PLC-γ1, anti-PLC-γ2, anti-LAT, anti-SLP-76, anti-p38, anti-JNK, anti-Vav, anti-Akt1 and 9E10 antibodies conjugated with HRP were acquired from Santa Cruz Biotechnology. The anti-phospho-p44/42 MAP Kinase, anti-p44/42 MAP Kinase, anti-phospho-p38, anti-phospho-JNK, anti-phospho-Akt1 antibodies were acquired from Cell Signaling. The anti-phospho-LAT and anti-phospho-PLC-γ1 antibodies were supplied by Biosource and the anti-phospho-SLP-76 antibodies by BD Pharmingen. The 4G10 anti-phosphotyrosine monoclonal antibody was acquired from Upstate Biotechnology. • 2) ADA method: ELISA type high-speed molecule screening test, based on antibody displacement (WO 2005106481). The recombinant fusion protein GST:Syk 6-242^8 comprising the residues 6 to 242 of murine Syk tyrosine kinase protein illustrated in FIG. 8B (SEQ ID No. 4) was immobilised on an ELISA plate at a final concentration of 10 μg ml^−1. For the screening of the chemical molecule bank, the small molecules, diluted in PBS at a final concentration of 10 μM were added to the wells for one hour at ambient temperature, before adding the fragment scFv G4G11 at a final concentration of 100 nM for an additional hour. The binding of G4G11 with Syk was assessed by adding the 9E10 monoclonal antibody conjugated with HRP detecting the amino acid sequence EQKLISEEDLN of human c-myc protein located at the C-terminal end of the scFv fragment. To generate Syk mutants, targeted mutagenesis was used on GST:Syk 6-242 protein and the binding of G4G11 with the mutants was assessed in the presence of 5 μM of C-13. • 3) Cells, culture conditions and functional tests. Anti-DNP 2682-I mouse monoclonal antibody was used as the culture supernatant of hybridomas containing 1 μg/ml of IgE. Femoral bone marrow cells were sampled and cultured in Opti-MEM medium (Gibco) supplemented with 10% foetal calf serum and 4% X63 transfectant supernatant secreting murine IL-3. RBL-2H3 (ATCC) leukaemic rat basophil cells were maintained in a single-layer culture in RPMI 1640 medium supplemented with 10% foetal calf serum (Gibco). […]

RBL-2H3 cells = experiment: cells; assay type: cell-based, rat; conditions: Rattus norvegicus; RBL-2H3 cells; read-out: Degran. IC50: concentration inhibiting mast cell degranulation by 50%
Method: These 87 molecules were also tested in vitro to assess the ability thereof to inhibit RBL-2H3 cell degranulation (see table 1).
as §1, with “(Gibco). Measurements of β-hexosaminidase released by the RBL-2H3 cells were performed as described previously^7, except that, after 12-16 hours of incubation with anti-DNP IgE (0.5 μg/ml), the cells were incubated for 90 min at 37° C. in RPMI medium supplemented with the specified concentrations of C-13 or DMF (0.25%). The cells were stimulated for 45 min with DNP-BSA (50 ng ml^−1) or ionomycin (1.5 μM). The BMMC cells were incubated for one hour at 37° C. with anti-DNP IgE (100 ng/ml). They were then incubated with C-13 (3 μM) or DMF (0.3%) for 3 hours at 37° C., and stimulated with varied concentrations of DNP-BSA. The level of β-hexosaminidase released was measured 10 min later and the TNF-α titration was performed by means of a cytotoxicity test on L929 cells as described previously^10, 3 hours after stimulation. The results illustrated in FIG. 3 are representative of three independent experiments. • 4) Immunoprecipitations, in vitro kinase assays and immunodetection.” for “(Gibco).”

Row | SMILES | inhibition at 10 µM [1] [%] | IC50 (RBL-2H3 cells) [µg/mL]
1 | CCOC(=O)C1CCN(C(=O)c2ccc(CN(c3ccc(C)c(C)c3)S(C)(=O)=O)cc2)CC1 [Molecule 80, ethyl 1-(4-{[(3,4-dimethylphenyl) (methyl sulphonyl)amino]methyl}benzoyl)-4-piperidine carboxylate] | 24.5 | > 10
2 | CCN(CC)CCN1C(=O)C(O)=C(C(=O)c2ccc(C)cc2)C1c1cc(OC)ccc1OC (stereo not drawn) [Molecule 28, 1-[2-(diethylamino)ethyl]-5-(2,5-dimethoxyphenyl)-3-hydroxy-4-(4-methylbenzoyl)-1,5-dihydro-2H-pyrrol-2-one] | 54 | > 10
3 | CN(C)CCCN1C(=O)C(O)=C(C(=O)c2ccc(S(=O)(=O)N(C)C)cc2)C1c1ccc(Cl)c(Cl)c1 (stereo not drawn) [Molecule 50, 4-({2-(3,4-dichlorophenyl)-1-[3-(dimethylamino)propyl]-4-hydroxy-5-oxo-2,5-dihydro-1H-pyrrol-3-yl}carbonyl)-N,N-dimethylbenzenesulphonamide] | 46.5 | > 10
4 | COc1ccc(C2C(C(=O)c3ccc(F)cc3)=C(O)C(=O)N2CCN2CCOCC2)c(OC)c1 (stereo not drawn) [Molecule 33] | 50 | > 10
5 | O=C(C1=C(O)C(=O)N(Cc2cccnc2)C1c1cccc(Oc2ccccc2)c1)c1ccc(F)cc1 (stereo not drawn) [Molecule 9, 4-(4-fluorobenzoyl)-3-hydroxy-5-(3-phenoxyphenyl)-1-(3-pyridinylmethyl)-1,5-dihydro-2H-pyrrol-2-one] | 71 | > 10
6 | CCN(CC)CCCN1C(=O)C(O)=C(C(=O)c2ccc3c(c2)OCO3)C1c1cccnc1 (stereo not drawn) [Molecule 51, 4-(1,3-benzodioxol-5-ylcarbonyl)-1-[3-(diethylamino)propyl]-3-hydroxy-5-(3-pyridinyl)-1,5-dihydro-2H-pyrrol-2-one] | 46 | > 10
7 | Cc1cccc(OCC(=O)Nc2cccc3c(NC(=O)COc4cccc(C)c4)cccc23)c1 [Molecule 20] | 60 | > 10
8 | COc1ccc(NC(=O)CSc2nc3ccccc3c(=O)n2Cc2ccco2)c(OC)c1 [Molecule 69] | 30 | ~5 (≈ 11.1 µM)
9 | COc1cccc2cc(C(=O)C3=C(O)C(=O)N(CCN4CCOCC4)C3c3cccc(Br)c3)oc12 (stereo not drawn) [Molecule 85, 5-(3-bromophenyl)-3-hydroxy-4-[(7-methoxy-1-benzofuran-2-yl)carbonyl]-1-[2-(4-morpholinyl)ethyl]-1,5-dihydro-2H-pyrrol-2-one] | 18 | ~10 (≈ 18.5 µM)
10 | COc1cc(C2C(C(=O)c3ccc(Cl)cc3)=C(O)C(=O)N2CCCN2CCOCC2)cc(OC)c1OC (stereo not drawn) [Molecule 25, 4-(4-chlorobenzoyl)-3-hydroxy-1-[3-(4-morpholinyl)propyl]-5-(3,4,5-trimethoxyphenyl)-1,5-dihydro-2H-pyrrol-2-one] | 56.5 | > 10
11 | CCOC(=O)c1sc(N2C(=O)C(O)=C(C(=O)c3ccccc3)C2c2ccc(OC)cc2)nc1C (stereo not drawn) [Molecule 37, ethyl 2-[3-benzoyl-4-hydroxy-2-(4-methoxyphenyl)-5-oxo-2,5-dihydro-1H-pyrrol-1-yl]-4-methyl-1,3-thiazole-5-carboxylate] | 50 | > 10
12 | COc1ccc(OC)c(C2C(C(=O)c3ccccc3)=C(O)C(=O)N2CCCn2ccnc2)c1 (stereo not drawn) [Molecule 5, 4-benzoyl-5-(2,5-dimethoxyphenyl)-3-hydroxy-1-[3-(1H-imidazol-1-yl)propyl]-1,5-dihydro-2H-pyrrol-2-one] | 77.5 | > 10
13 | COc1ccc(OC)c(C2C(C(=O)c3ccc(F)cc3)=C(O)C(=O)N2CCCN2CCOCC2)c1 (stereo not drawn) [Molecule 43, 5-(2,5-dimethoxyphenyl)-4-(4-fluorobenzoyl)-3-hydroxy-1-[3-(4-morpholinyl)propyl]-1,5-dihydro-2H-pyrrol-2-one] | 48.5 | > 10
14 | O=C1c2ccc(Oc3ccc4c(c3)C(=O)N(CC3CCCO3)C4=O)cc2C(=O)N1CC1CCCO1 (stereo not drawn) [Molecule 62, 5,5′-oxybis [2-(tetrahydro-2-furanyl methyl)-1H-isoindole-1,3(2H)-dione]] | 38.5 | > 10
15 | COc1cccc(C2C(C(=O)c3ccccc3)=C(O)C(=O)N2CCCN2CCOCC2)c1OC (stereo not drawn) [Molecule 74, 4-benzoyl-5-(2,3-dimethoxyphenyl)-3-hydroxy-1-(3-(4-morpholinyl)propyl]-1,5-dihydro-2H-pyrrol-2-one] | 27.5 | > 10
